Our source for the IC50 values is patent publication US8895550B2, “Triazolopyridine compounds as PIM kinase inhibitors” (Array BioPharma Inc., priority 2008, dated 2014).

What all share (type): biochemical
The target of experiment [1] is PIM-1 (Homo sapiens, UniProt P11309). In words: Enzyme PIM-1 Assay (radiometric [33P]ATP incorporation into PIM2tide, filter plate). Conditions: 35 μM ATP, 7.5 μM PIM2tide, 0.25 nM PIM-1, 60 min at 22° C.; high dose 10 μM. Here is the method: (§1) The assay for the determination of PIM-1 activity is based on the incorporation of [^33P]PO4 from [γ-^33P]ATP into PIM2tide substrate and capture of the radiolabeled peptide onto a Whatman P81 (phosphocellulose) filter plate. The amount of radiolabeled product is then measured by liquid scintillation counting. The final buffer conditions were as follows: 20 mM K^+MOPS, pH 7.4, 10 mM MgCl2, 0.005% Tween-20, 1 mM DTT. Assay mixtures contained 35 μM [γ-^33P]ATP (20 μCi/mL), 7.5 μM PIM2tide and 0.25 nM PIM-1 in a total volume of 50 μL. Incubations were carried out for 60 min at 22° C. and quenched with 75 μL, of 200 mM H3PO4, filtered through a Whatman P81 plate and washed (1×200 μL and 5×100 μL) with 200 mM H3PO4. Fifty μL of liquid scintillation cocktail were then added per well, and the plate was counted for 30 s/well using a TopCount NXT.
(§2) Compounds were prepared at 50× the final concentration in DMSO by conducting 3-fold serial dilutions from a 500-μM intermediate dilution to give a 10-point dosing curve having a high dose of 10 μM. One-μL aliquots of these were then transferred to the assay mixtures above to give a final concentration of DMSO of 2%. A standard or reference compound was typically included on each assay plate to validate that plate. For each plate, percent of control (POC) values were calculated for each well. IC50's were estimated from the POC's using a standard 4-parameter logistic model. The IC50 is defined as the concentration of inhibitor at which the POC equals 50 for the fitted curve.

Experiment [2] deals with T1, GST-tagged recombinant full-length human Pim-2 (Homo sapiens, UniProt Q9P1W9).
T1 construct: GST-tagged recombinant full-length human Pim-2; GST
As to the kind of experiment: PIM-2 Assay (as Example A with GST-tagged recombinant full-length human Pim-2). Conditions: 4 μM ATP, 1.0 μM PIM2tide, 1.5 nM Pim-2; high dose 10 μM. Here is the method:
as §1, §2
Assay was performed as described in Example A, using 4 μM [γ-^33P]ATP (20 μCi/mL), 1.0 μM PIM2tide and 1.5 nM GST-tagged recombinant full-length human Pim-2 in place of PIM-1.

The target in experiment [3] is recombinant rat PIM-3 (Rattus norvegicus, UniProt O70444). In words: PIM-3 Assay (as Example A with recombinant rat PIM-3). Conditions: 30 μM ATP, 3.75 μM PIM2tide, 0.5 nM PIM-3; high dose 10 μM. Here is the method:
as §1, §2
Assay was performed as described in Example A, using 30 μM [γ-^33P]ATP (20 μCi/mL), 3.75 μM PIM2tide and 0.5 nM recombinant rat PIM-3 in place of PIM-1.

Sequence of PIM-1 (P11309 whole entry, species assumed): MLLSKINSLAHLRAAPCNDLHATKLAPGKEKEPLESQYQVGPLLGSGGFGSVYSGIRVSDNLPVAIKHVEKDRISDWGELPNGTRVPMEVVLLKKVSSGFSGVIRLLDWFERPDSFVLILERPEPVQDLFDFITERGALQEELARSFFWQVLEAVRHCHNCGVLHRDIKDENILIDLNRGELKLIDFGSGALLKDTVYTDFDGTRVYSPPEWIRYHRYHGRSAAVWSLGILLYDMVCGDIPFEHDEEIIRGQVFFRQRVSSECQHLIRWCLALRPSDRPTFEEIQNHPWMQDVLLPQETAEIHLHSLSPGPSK
T1 sequence (Q9P1W9 whole entry): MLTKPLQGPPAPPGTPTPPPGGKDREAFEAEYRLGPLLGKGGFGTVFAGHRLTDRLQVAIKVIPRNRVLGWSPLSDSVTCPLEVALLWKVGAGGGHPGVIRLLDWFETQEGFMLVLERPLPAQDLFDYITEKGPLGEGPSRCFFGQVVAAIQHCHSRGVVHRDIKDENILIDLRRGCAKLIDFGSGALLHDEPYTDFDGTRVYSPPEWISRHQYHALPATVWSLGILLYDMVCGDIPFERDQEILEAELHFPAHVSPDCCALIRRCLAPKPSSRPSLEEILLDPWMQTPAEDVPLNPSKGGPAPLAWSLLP

Consider `N[C@@H]1CCN(c2cccc3ccc(-c4nnc5ccccn45)nc23)C[C@@H]1F` (relative stereo) [Example 27, (cis)-1-(2-([1,2,4]triazolo[4,3-a]pyridin-3-yl)quinolin-8-yl)-3-fluoropiperidin-4-amine], for which the IC50 is 34 nM in experiment [1], 570 nM in experiment [2] and 38 nM in experiment [3].
The matching figures for `COCCOc1ccn2c(-c3ccc4cccc(N5CCNCC5)c4n3)nnc2c1` [Example 1, 2-(7-(2-Methoxyethoxy)-[1,2,4]triazolo[4,3-a]pyridin-3-yl)-8-(piperazin-1-yl)quinoline]: 255 nM, no less than 10000 nM and 554 nM.
`COc1ccn2c(-c3ccc4cccc(N5CCNCC5)c4n3)nnc2c1` [Example 2, 2-(7-Methoxy-[1,2,4]triazolo[4,3-a]pyridin-3-yl)-8-(piperazin-1-yl)quinoline]: the IC50 was 179 nM in experiment [1] and no less than 10000 nM in experiment [2].
With `COc1ccn2c(-c3ccc4cccc(N5CCC(N)CC5)c4n3)nnc2c1` [Example 3, 1-(2-(7-Methoxy-[1,2,4]triazolo[4,3-a]pyridin-3-yl)quinolin-8-yl)piperidin-4-amine], the IC50 in experiment [1] was determined as 24 nM; in experiment [2], 2310 nM; in experiment [3], 60 nM.
As to `COc1ccn2c(-c3ccc4cccc(N5CCOCC5)c4n3)nnc2c1` [Example 4, 4-(2-(7-Methoxy-[1,2,4]triazolo[4,3-a]pyridin-3-yl)quinolin-8-yl)morpholine], the IC50 in experiment [1] is 2790 nM; in experiment [2], no less than 10000 nM.
Regarding `c1cc(N2CCCCC2)c2nc(-c3nnc4ccccn34)ccc2c1` [Example 5, 2-([1,2,4]Triazolo[4,3-a]pyridin-3-yl)-8-(piperidin-1-yl)quinoline], the IC50 in experiment [1] came to 24 nM; in experiment [2], 2600 nM; in experiment [3] it was 121 nM.
The matching figures for `c1cc(N2CCNCC2)c2nc(-c3nnc4ccccn34)ccc2c1` [Example 6, 2-([1,2,4]Triazolo[4,3-a]pyridin-3-yl)-8-(piperazin-1-yl)quinoline]: 31 nM, 2980 nM and 105 nM.
For `C[C@@H]1CN(c2cccc3ccc(-c4nnc5ccccn45)nc23)CCN1` [Example 7, (R)-2-([1,2,4]Triazolo[4,3-a]pyridin-3-yl)-8-(3-methylpiperazin-1-yl)quinoline] the same measures were 17 nM, 3590 nM and 105 nM.
`C[C@@H]1CN(c2cccc3ccc(-c4nnc5ccccn45)nc23)C[C@H](C)N1` [Example 8, 2-([1,2,4]Triazolo[4,3-a]pyridin-3-yl)-8-((cis)-3,5-dimethylpiperazin-1-yl)quinoline]: the IC50 in experiment [1] was 54 nM; in experiment [2] it was no less than 10000 nM; in experiment [3], 189 nM.
The matching figures for `NC1CCN(c2cccc3ccc(-c4nnc5ccccn45)nc23)CC1` [Example 9, 1-(2-([1,2,4]Triazolo[4,3-a]pyridin-3-yl)quinolin-8-yl)piperidin-4-amine]: 11 nM, 543 nM and 24 nM.
The matching figures for `NCC1CCN(c2cccc3ccc(-c4nnc5ccccn45)nc23)CC1` [Example 10, (1-(2-([1,2,4]Triazolo[4,3-a]pyridin-3-yl)quinolin-8-yl)piperidin-4-yl)methanamine]: 3 nM, 224 nM and 13 nM.
On to `NCC1CCN(c2cccc3ccc(-c4nnc5cc(CO)ccn45)nc23)CC1` [Example 11, (3-(8-(4-(Aminomethyl)piperidin-1-yl)quinolin-2-yl)-[1,2,4]triazolo[4,3-a]pyridin-7-yl)methanol], for which the IC50 in experiment [1] is 84 nM; in experiment [2] it was 2600 nM; in experiment [3], 217 nM.
The matching figures for `CCNCc1ccn2c(-c3ccc4cccc(N5CCC(CN)CC5)c4n3)nnc2c1` [Example 12, N-((3-(8-(4-(aminomethyl)piperidin-1-yl)quinolin-2-yl)-[1,2,4]triazolo[4,3-a]pyridin-7-yl)methyl)ethanamine]: 3 nM, 92 nM and 4 nM.
The matching figures for `NCc1ccn2c(-c3ccc4cccc(N5CCC(CN)CC5)c4n3)nnc2c1` [Example 13, (1-(2-(7-(Aminomethyl)-[1,2,4]triazolo[4,3-a]pyridin-3-yl)quinolin-8-yl)piperidin-4-yl)methanamine]: 2 nM, 29 nM and 4 nM.
Consider `NCC1CCN(c2cccc3ccc(-c4nnc5cc(C(O)CO)ccn45)nc23)CC1` (stereo not drawn) [Example 14, 1-(3-(8-(4-(Aminomethyl)piperidin-1-yl)quinolin-2-yl)-[1,2,4]triazolo[4,3-a]pyridin-7-yl)ethane-1,2-diol], for which the values for the IC50 in experiment [1], in experiment [2] and in experiment [3] were 4 nM, 509 nM and 20 nM, respectively.
Regarding `OCC1CCCN(c2cccc3ccc(-c4nnc5ccccn45)nc23)C1` (stereo not drawn) [Example 15, (1-(2-([1,2,4]Triazolo[4,3-a]pyridin-3-yl)quinolin-8-yl)piperidin-3-yl)methanol], the IC50 in experiment [1] was 15 nM; in experiment [2] it was 2080 nM.
In the case of `NCC1CCN(c2cc(F)cc3ccc(-c4nnc5ccccn45)nc23)CC1` [Example 16, (1-(2-([1,2,4]triazolo[4,3-a]pyridin-3-yl)-6-fluoroquinolin-8-yl)piperidin-4-yl)methanamine], the IC50 amounted to 3 nM in experiment [1], 185 nM in experiment [2] and 10 nM in experiment [3].
The matching figures for `NCC1CCN(c2ccc(F)c3ccc(-c4nnc5ccccn45)nc23)CC1` [Example 17, (1-(2-([1,2,4]triazolo[4,3-a]pyridin-3-yl)-5-fluoroquinolin-8-yl)piperidin-4-yl)methanamine]: 77 nM, 1960 nM and 51 nM.
The matching figures for `NCC1CCN(c2cc(Cl)cc3ccc(-c4nnc5ccccn45)nc23)CC1` [Example 18, (1-(2-([1,2,4]Triazolo[4,3-a]pyridin-3-yl)-6-chloroquinolin-8-yl)piperidin-4-yl)methanamine]: 32 nM, 736 nM and 25 nM.
Consider `CC1CCCN(c2cccc3ccc(-c4nnc5ccccn45)nc23)C1` (stereo not drawn) [Example 19, 2-([1,2,4]triazolo[4,3-a]pyridin-3-yl)-8-(3-methylpiperidin-1-yl)quinoline], for which the concentration for half-maximal inhibition (IC50) is 18 nM in experiment [1] and 1800 nM in experiment [2].
The matching figures for `OC1CCCN(c2cccc3ccc(-c4nnc5ccccn45)nc23)C1` (stereo not drawn) [Example 20, 1-(2-([1,2,4]triazolo[4,3-a]pyridin-3-yl)quinolin-8-yl)piperidin-3-ol]: 48 nM and 2380 nM.
For `N[C@@H]1CCCN(c2cccc3ccc(-c4nnc5ccccn45)nc23)C1` [Example 21, (R)-1-(2-([1,2,4]triazolo[4,3-a]pyridin-3-yl)quinolin-8-yl)piperidin-3-amine] the same measures were 7 nM and 142 nM.
The matching figures for `N[C@H]1CCCN(c2cccc3ccc(-c4nnc5ccccn45)nc23)C1` [Example 22, (S)-1-(2-([1,2,4]triazolo[4,3-a]pyridin-3-yl)quinolin-8-yl)piperidin-3-amine]: 270 nM and 3100 nM.
With `CC1(C)CN(c2cccc3ccc(-c4nnc5ccccn45)nc23)CCN1` [Example 23, 2-([1,2,4]triazolo[4,3-a]pyridin-3-yl)-8-(3,3-dimethylpiperazin-1-yl)quinoline], the IC50 in experiment [1] came to 22 nM; in experiment [2] it was 647 nM; in experiment [3] it was 62 nM.
As to `Cc1nc(CN2CCN(c3cccc4ccc(-c5nnc6ccccn56)nc34)CC2)cs1` [Example 24, 4-((4-(2-([1,2,4]triazolo[4,3-a]pyridin-3-yl)quinolin-8-yl)piperazin-1-yl)methyl)-2-methylthiazole], the IC50 in experiment [1] is 150 nM; in experiment [2], no less than 10000 nM.
Take `CC1CCCN(c2c(Br)ccc3ccc(-c4nnc5ccccn45)nc23)C1` (stereo not drawn) [Example 25, 2-([1,2,4]triazolo[4,3-a]pyridin-3-yl)-7-bromo-8-(3-methylpiperidin-1-yl)quinoline]: the IC50 in experiment [1] was determined as 128 nM; in experiment [2], 3020 nM.

For orientation: IC50 means the concentration that inhibits the measured activity by half.
